Data as given in patent US20230278972A1, “SUBSTITUTED HALOALKYL SULFONANILIDE HERBICIDES” (FMC Corporation, priority 2020, published 2023).

What was measured:
Assay type in all cases: in vivo
[1] = tested on: barnyardgrass (Echinochloa crus-galli); experiment: Test A preemergence, barnyardgrass; conditions: Preemergence, 0 to 100 scale (0 no effect, 100 complete control)
How it was run: (§1)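 Directed soil spray at planting gave the preemergence treatment, while foliar application to one- to two-leaf seedlings (2–10 cm) gave the postemergence one; pots held a loam and sand mixture and chemicals were carried in a non-phytotoxic solvent with surfactant.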

kochia (Bassia scoparia) [2] = experiment: Test A preemergence, kochia; conditions: Preemergence, 0 to 100 scale (0 no effect, 100 complete control)
How it was run: as §1

[3] = tested on: ragweed (common ragweed, Ambrosia artemisiifolia); experiment: Test A preemergence, ragweed; conditions: Preemergence, 0 to 100 scale (0 no effect, 100 complete control)
How it was run: as §1

[4] = tested on: Ryegrass, Italian (Italian ryegrass, Lolium multiflorum); experiment: Test A preemergence, Ryegrass, Italian; conditions: Preemergence, 0 to 100 scale (0 no effect, 100 complete control)
How it was run: as §1

[5] = tested on: Foxtail, Giant (giant foxtail, Setaria faberi); experiment: Test A preemergence, Foxtail, Giant; conditions: Preemergence, 0 to 100 scale (0 no effect, 100 complete control)
How it was run: as §1

[6] = tested on: pigweed (Amaranthus retroflexus); experiment: Test A preemergence, pigweed; conditions: 0 to 100 scale (0 no effect, 100 complete control)
How it was run: (§2)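 Test chemicals, formulated in a non-phytotoxic solvent mixture with surfactant, were sprayed postemergence on plants 2 to 10 cm tall at the one- to two-leaf stage. Preemergence treatment was a directed soil spray onto freshly seeded pots. Both used a loam soil and sand blend.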

[7] = tested on: barnyardgrass (Echinochloa crus-galli); experiment: Test A postemergence, barnyardgrass; conditions: Postemergence, 0 to 100 scale (0 no effect, 100 complete control); for Plant response rating, Barnyardgrass: 125 g ai/ha; for Barnyardgrass plant response rating: 500 g ai/ha, visual injury vs untreated controls after approx. 10 days
How it was run: as §2

kochia (Bassia scoparia) [8] = experiment: Test A postemergence, kochia; conditions: Postemergence, 0 to 100 scale (0 no effect, 100 complete control); for Plant response rating, Kochia: 125 g ai/ha; for Kochia plant response rating: 500 g ai/ha, visual injury vs untreated controls after approx. 10 days
How it was run: as §1

[9] = tested on: ragweed (common ragweed, Ambrosia artemisiifolia); experiment: Test A postemergence, ragweed; conditions: Postemergence, 0 to 100 scale (0 no effect, 100 complete control); for Plant response rating, Ragweed: 125 g ai/ha; for Ragweed plant response rating: 500 g ai/ha, visual injury vs untreated controls after approx. 10 days
How it was run: as §1

[10] = tested on: Ryegrass, Italian (Italian ryegrass, Lolium multiflorum); experiment: Test A postemergence, Ryegrass, Italian; conditions: Postemergence, 0 to 100 scale (0 no effect, 100 complete control); for Plant response rating, Ryegrass, Italian: 125 g ai/ha; for Ryegrass, Italian plant response rating: 500 g ai/ha, visual injury vs untreated controls after approx. 10 days
How it was run: as §1

[11] = tested on: Foxtail, Giant (giant foxtail, Setaria faberi); experiment: Test A postemergence, Foxtail, Giant; conditions: Postemergence, 0 to 100 scale (0 no effect, 100 complete control); for Plant response rating, Foxtail, Giant: 125 g ai/ha; for Foxtail, Giant plant response rating: 500 g ai/ha, visual injury vs untreated controls after approx. 10 days
How it was run: as §1

[12] = tested on: pigweed (Amaranthus retroflexus); experiment: Test A postemergence, pigweed; conditions: Postemergence, 0 to 100 scale (0 no effect, 100 complete control); for Plant response rating, Pigweed: 125 g ai/ha; for Pigweed plant response rating: 500 g ai/ha, visual injury vs untreated controls after approx. 10 days
How it was run: as §1

[13] = tested on: wheat (Triticum aestivum); experiment: Test A postemergence, wheat; conditions: Postemergence, 0 to 100 scale (0 no effect, 100 complete control); for Plant response rating, Wheat: 125 g ai/ha; for Wheat plant response rating: 500 g ai/ha, visual injury vs untreated controls after approx. 10 days
How it was run: as §2

corn (Zea mays) = experiment: Test A postemergence, corn; conditions: Postemergence, 0 to 100 scale (0 no effect, 100 complete control); for Plant response rating, Corn: 125 g ai/ha; for Corn plant response rating: 500 g ai/ha, visual injury vs untreated controls after approx. 10 days
How it was run: as §1

[14] = tested on: blackgrass (Alopecurus myosuroides); experiment: Test A postemergence, blackgrass; conditions: Postemergence, 0 to 100 scale (0 no effect, 100 complete control); for Plant response rating, Blackgrass: 125 g ai/ha; for Blackgrass plant response rating: 500 g ai/ha, visual injury vs untreated controls after approx. 10 days
How it was run: as §1

[15] = tested on: galium (catchweed bedstraw, Galium aparine); experiment: Test A postemergence, galium; conditions: Postemergence, 0 to 100 scale (0 no effect, 100 complete control); for Plant response rating, Galium: 125 g ai/ha; for Galium plant response rating: 500 g ai/ha, visual injury vs untreated controls after approx. 10 days
How it was run: as §2

[16] = 125 g ai/ha, visual injury, approx. 10 days

Compound	Plant response rating, Barnyardgrass [1, 16]	Plant response rating, Barnyardgrass ([1]; 500 g ai/ha)	Plant response rating, Kochia (kochia (Bassia scoparia) [2]; [16])	Plant response rating, Kochia (kochia (Bassia scoparia) [2]; 500 g ai/ha)	Plant response rating, Ragweed [3, 16]	Plant response rating, Ragweed ([3]; 500 g ai/ha)	Plant response rating, Ryegrass, Italian [4, 16]	Plant response rating, Ryegrass, Italian ([4]; 500 g ai/ha)	Plant response rating, Foxtail, Giant [5, 16]	Plant response rating, Foxtail, Giant ([5]; 500 g ai/ha)	Plant response rating, Pigweed [6, 16]	Plant response rating, Pigweed ([6]; 500 g ai/ha)	Plant response rating, Barnyardgrass [7]	Barnyardgrass plant response rating [7]	Plant response rating, Kochia (kochia (Bassia scoparia) [8])	Kochia plant response rating (kochia (Bassia scoparia) [8])	Plant response rating, Ragweed [9]	Ragweed plant response rating [9]	Plant response rating, Ryegrass, Italian [10]	Ryegrass, Italian plant response rating [10]	further results
Cc1cc(Cl)c(NS(=O)(=O)C(F)(F)F)cc1C1=NOC(C)(C)C1 [Compound 203]	90	90	60	90	80	90	50	100	30	100	60	100	60	80	40	80	70	90	0	60	Plant response rating, Foxtail, Giant [11]: 0; Foxtail, Giant plant response rating [11]: 50; Plant response rating, Pigweed [12]: 20; Pigweed plant response rating [12]: 60; Plant response rating, Wheat [13]: 40; Wheat plant response rating [13]: 70; Plant response rating, Corn (corn (Zea mays)): 10; Corn plant response rating (corn (Zea mays)): 60; Plant response rating, Blackgrass [14]: 20; Blackgrass plant response rating [14]: 30; Plant response rating, Galium [15]: 80; Galium plant response rating [15]: 90
Cc1cc(Cl)c(NS(=O)(=O)C(F)(F)F)cc1C1=NOC2(CCCC2)C1 [Compound 204]	90	90	40	90	10	90	90	100	80	100	90	100	0	80	30	70	20	80	40	50	Plant response rating, Foxtail, Giant [11]: 10; Foxtail, Giant plant response rating [11]: 60; Plant response rating, Pigweed [12]: 20; Pigweed plant response rating [12]: 70; Plant response rating, Wheat [13]: 50; Wheat plant response rating [13]: 70; Plant response rating, Corn (corn (Zea mays)): 10; Corn plant response rating (corn (Zea mays)): 50; Plant response rating, Blackgrass [14]: 0; Blackgrass plant response rating [14]: 40; Plant response rating, Galium [15]: 50; Galium plant response rating [15]: 80
Cc1cc(C)c(C2=NOC(C)(C)C2)cc1NS(=O)(=O)C(F)(F)F [Compound 206]	90	90	80	90	40	80	80	90	80	90	90	100	60	80	20	70	60	90	50	90	Plant response rating, Foxtail, Giant [11]: 50; Foxtail, Giant plant response rating [11]: 60; Plant response rating, Pigweed [12]: 60; Pigweed plant response rating [12]: 70; Plant response rating, Wheat [13]: 60; Wheat plant response rating [13]: 80; Plant response rating, Corn (corn (Zea mays)): 0; Corn plant response rating (corn (Zea mays)): 70; Plant response rating, Blackgrass [14]: 50; Blackgrass plant response rating [14]: 50; Plant response rating, Galium [15]: 70; Galium plant response rating [15]: 80
Cc1cc(C)c(N(S(=O)(=O)C(F)(F)F)S(=O)(=O)C(F)(F)F)cc1C1=NOC2(CCCC2)C1 [Compound 208]	90	90	90	90	0	0	70	80	90	100	60	70	0	30	10	30	20	20	0	40	Plant response rating, Foxtail, Giant [11]: 0; Foxtail, Giant plant response rating [11]: 40; Plant response rating, Pigweed [12]: 20; Pigweed plant response rating [12]: 50; Plant response rating, Wheat [13]: 0; Wheat plant response rating [13]: 50; Plant response rating, Corn (corn (Zea mays)): 0; Corn plant response rating (corn (Zea mays)): 20; Plant response rating, Blackgrass [14]: 0; Blackgrass plant response rating [14]: 20; Plant response rating, Galium [15]: 30; Galium plant response rating [15]: 70
CCC1(CC)CC(c2cc(NS(=O)(=O)C(F)(F)F)c(C)cc2C)=NO1 [Compound 209]	40	90	0	80	0	60	50	90	20	70	0	50	20	70	20	40	40	60	40	90	Plant response rating, Foxtail, Giant [11]: 0; Foxtail, Giant plant response rating [11]: 10; Plant response rating, Pigweed [12]: 30; Pigweed plant response rating [12]: 50; Plant response rating, Wheat [13]: 0; Wheat plant response rating [13]: 0; Plant response rating, Corn (corn (Zea mays)): 0; Corn plant response rating (corn (Zea mays)): 30; Plant response rating, Blackgrass [14]: 20; Blackgrass plant response rating [14]: 30; Plant response rating, Galium [15]: 70; Galium plant response rating [15]: 80
